# Assay results taken from ChEMBL document CHEMBL4840323, “Discovery of an Orally Bioavailable Small-Molecule Inhibitor for the β-Catenin/B-Cell Lymphoma 9 Protein-Protein Interaction” (J Med Chem, 2021).
# Active and inactive are the calls of the source. No cut-off for these calls is given here.
# Columns and labels:
# MDA-MB-231 [1] = assay: Antiproliferative activity against human MDA-MB-231 cells harboring empty pcDNA3.1 vector at 20 uM measured after 72 hrs by MTS assay; type: functional, cell-based
# MDA-MB-468 [2] = assay: Antiproliferative activity against human MDA-MB-468 cells harboring beta-catenin pcDNA3.1 vector at 20 uM measured after 72 hrs by MTS assay; type: functional, cell-based
# MDA-MB-468 [3] = assay: Induction of apoptosis in human MDA-MB-468 cells assessed as early apoptotic cells at 10 uM measured after 72 hrs by annexinV-FITC/propidium iodide staining based flow cytometry (reference value: 28.9 %); type: functional
# MDA-MB-468 [4] = assay: Induction of apoptosis in human MDA-MB-468 cells assessed as late apoptotic cells at 10 uM measured after 72 hrs by annexinV-FITC/propidium iodide staining based flow cytometry (reference value: 13.9 %); type: functional
# MDA-MB-468 [5] = assay: Induction of apoptosis in human MDA-MB-468 cells assessed as early apoptotic cells at 20 uM measured after 72 hrs by annexinV-FITC/propidium iodide staining based flow cytometry (reference value: 28.9 %); type: functional
# MDA-MB-468 [6] = assay: Induction of apoptosis in human MDA-MB-468 cells assessed as late apoptotic cells at 20 uM measured after 72 hrs by annexinV-FITC/propidium iodide staining based flow cytometry (reference value: 13.9 %); type: functional
# MCF-10A [7] = assay: Induction of apoptosis in human MCF-10A cells assessed as late apoptotic cells at 20 uM measured after 72 hrs by annexinV-FITC/propidium iodide staining based flow cytometry (reference value: 13.9 %); type: cell-based
# [8] = Half life in C57BL/6 mouse at 1 mg/kg, iv measured after 5 mins by LC-MS/MS analysis; type: ADME, organism-based; conditions: in vivo
# [9] = Clearance in C57BL/6 mouse at 20 mg/kg, po via gavage measured up to 24 hrs by LC-MS/MS analysis; type: ADME, organism-based; conditions: in vivo
# MDA-MB-231 [10] = assay: Antiinvasive activity against human MDA-MB-231 cells cultured as 3D-spheroids at 5 uM measured after 6 days by imaging analysis relative to control; type: functional; conditions: time 6 day
# MDA-MB-231 [11] = assay: Antiinvasive activity against human MDA-MB-231 cells cultured as 3D-spheroids at 10 uM measured after 6 days by imaging analysis relative to control; type: functional; conditions: time 6 day
# MDA-MB-231 [12] = assay: Antiinvasive activity against human MDA-MB-231 cells cultured as 3D-spheroids at 40 uM measured after 6 days by imaging analysis relative to control; type: functional; conditions: time 6 day
# SW480 = assay: Inhibition of Wnt/beta-catenin transactivation signalling in human SW480 cells assessed as relative activity at 6.25 uM measured after 24 hrs by TOPFlash reporter gene assay relative to control; type: cell-based; design: scale not given: the % may be the effect or the level left
# MDA-MB-468 [13] = assay: Inhibition of Wnt/beta-catenin transactivation signalling in Wnt3a stimulated human MDA-MB-468 cells assessed as relative activity at 6.25 uM measured after 24 hrs by TOPFlash reporter gene assay relative to control; type: cell-based; design: scale not given: the % may be the effect or the level left
# MDA-MB-468 [14] = assay: Inhibition of Wnt/beta-catenin transactivation signalling in Wnt3a stimulated human MDA-MB-468 cells assessed as relative activity at 25 uM measured after 24 hrs by TOPFlash reporter gene assay relative to control; type: cell-based; design: scale not given: the % may be the effect or the level left
# Mus musculus [15] = species on record: Mus musculus; conditions: dose 90.0 mg/kg, time 5.0 day
# Mus musculus [16] = species on record: Mus musculus; conditions: dose 90.0 mg/kg, time 5.0 day; remark: listed apart in the source
# Mus musculus [17] = species on record: Mus musculus; conditions: dose 90.0 mg/kg, time 5.0 day; remark: listed apart in the source
# Mus musculus [18] = species on record: Mus musculus; conditions: dose 90.0 mg/kg, time 5.0 day; remark: listed apart in the source
# MDA-MB-468 [19] = assay: cells; conditions: Homo sapiens, MDA-MB-468, 72 h
# Description: Antiproliferative activity against human MDA-MB-468 cells assessed as cell growth inhibition measured after 72 hrs by MTS assay
# HCT-116 = assay: cells; conditions: Homo sapiens, HCT-116, 72 h
# Description: Antiproliferative activity against human HCT-116 cells assessed as cell growth inhibition measured after 72 hrs by MTS assay
# MCF-10A [20] = assay: cells; conditions: Homo sapiens, 72 h
# Description: Cytotoxicity against human MCF-10A cells assessed as cell growth inhibition measured after 72 hrs by MTS assay
compound,measurement,setting,value
CC(C)(Oc1cccc(N2CCC[C@@H](C(=O)N(Cc3ccc(-c4cn[nH]c4)cc3)C3CC3)C2)c1)C(=O)N1CCNCC1.Cl,Activity,MDA-MB-231 [1],Active
same,Activity,MDA-MB-468 [2],inactive
same,Activity,MDA-MB-468 [3],17.5%
same,Activity,MDA-MB-468 [4],17.6%
same,Activity,MDA-MB-468 [5],34.6%
same,Activity,MDA-MB-468 [6],24.6%
same,Activity,MCF-10A [7],17.3%
same,t1/2,[8],3.51 h
same,CL/F,[9],51.1 mL/min/kg
same,Activity,MDA-MB-231 [10],76.3%
same,Activity,MDA-MB-231 [11],47.5%
same,Activity,MDA-MB-231 [12],10.9%
same,Activity,SW480,97%
same,Activity,MDA-MB-468 [13],102%
same,Activity,MDA-MB-468 [14],89%
same,inhibition,Mus musculus [15],Active
same,inhibition,Mus musculus [16],Active
same,inhibition,Mus musculus [17],Active
same,inhibition,Mus musculus [18],Active
same,IC50,MDA-MB-468 [19],9.6 µM
same,IC50,HCT-116,76 µM
same,IC50,MCF-10A [20],92 µM
